Laboratory results from ChEMBL document CHEMBL5523732, “Structure-Guided Design of Potent Coronavirus Inhibitors with a 2-Pyrrolidone Scaffold: Biochemical, Crystallographic, and Virological Studies” (J Med Chem, 2024).

What was measured:
[1] = target: Replicase polyprotein 1ab (Severe acute respiratory syndrome coronavirus 2, UniProt P0DTD1); assay: Inhibition of full length N-terminal his6-tagged SARS-CoV-2 3CL protease using FAM-SAVLQ as substrate preincubated with compound for 30 mins followed by substrate addition and measured after 30 mins by FRET assay
[2] = Inhibition of MERS-CoV 3CLpro using SG-QXL520 as substrate preincubated with compound for 30 mins followed by susbtrate addition and measured after 30 mins by FRET assay; design: species or system Middle East respiratory syndrome-related coronavirus
[3] = test system: SARS-CoV-2; assay: Antiviral activity against SARS CoV-2 Wuhan-Hu-1 infected in HEK293T cells incubated for 24 hrs; assay type: functional, organism-based; conditions: Severe acute respiratory syndrome coronavirus 2, Wuhan-Hu-1, HEK-293T
[4] = Cytotoxicity against cat CRFK cells incubated for 72 hrs by CytoTox 96 analysis; assay type: toxicity, cell-based, Felis catus

SMILES	IC50 [1] [nM]	IC50 [2] [nM]	EC50 [3] [nM]	CC50 at 72 h [4] [nM]
CC(C)C[C@H](NC(=O)OC[C@@H]1CCC(=O)N1Cc1cccc(Cl)c1)C(=O)N[C@H](C=O)C[C@@H]1CCNC1=O	110	17	110	> 50000
CC(C)C[C@H](NC(=O)OCC1CC(=O)N(CC2CC3CCC2C3)C1)C(=O)N[C@H](C=O)C[C@@H]1CCNC1=O (stereo not given in full)	160	60	120	> 50000
CC(C)C[C@H](NC(=O)OC[C@@H]1CCC(=O)N1CC1CCCCC1)C(=O)N[C@H](C=O)C[C@@H]1CCNC1=O	250	50	750	> 50000
CC(C)C[C@H](NC(=O)OCC1CC(=O)N(CC2CCCCC2)C1)C(=O)N[C@H](C=O)C[C@@H]1CCNC1=O (stereo not given in full)	310	50	130	> 50000
CC(C)C[C@H](NC(=O)OC[C@@H]1CCC(=O)N1Cc1ccc2c(c1)OC(F)(F)O2)C(=O)N[C@H](C=O)C[C@@H]1CCNC1=O	270	50	510	> 50000
